Measurements from PubChem BioAssay (NCI).
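Five compound concentrations were applied to cells in 96-well plates for 48 hours; endpoints were derived by simple linear interpolation of the resulting dose-response curve. TGI marks complete inhibition of growth.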

What was measured:
Assay in all cases: NCI anticancer screen, dose series, 48 h
[1] = test system: T-47D breast
[2] = test system: M14 melanoma
[3] = test system: CAKI-1 renal
[4] = test system: OVCAR-8 ovarian
[5] = test system: MDA-MB-435
[6] = test system: TK-10 renal
[7] = test system: NCI-H460 lung
[8] = test system: RPMI-8226 leukemia
[9] = test system: SF-539 CNS
[10] = test system: MDA-MB-231 breast
[11] = test system: HS 578T breast
[12] = test system: RXF 393 renal
[13] = test system: CCRF-CEM leukemia

| Structure (SMILES) | TGI [1] [µM] | TGI [2] [µM] | TGI [3] [µM] | TGI [4] [µM] | TGI [5] [µM] | TGI [6] [µM] | TGI [7] [µM] | TGI [8] [µM] | TGI [9] [µM] | TGI [10] [µM] | TGI [11] [µM] | TGI [12] [µM] | TGI [13] [µM] |
| --- | --- | --- | --- | --- | --- | --- | --- | --- | --- | --- | --- | --- | --- |
| CC1=NN(C(=O)c2ccccc2O)C(c2ccccc2Cl)C1C(=O)Nc1ccccc1 (stereo unspecified) | > 100 | 33.1 | > 100 | > 100 | > 100 | > 100 | > 53.1 | > 90.8 | 5.68 | > 100 | > 100 | > 100 | 0.245 |
| Nc1cccc(C#Cc2cccc(C#Cc3cccc(N)n3)n2)n1 | > 100 | > 100 | > 100 | > 100 | > 100 | > 100 | > 100 | > 100 | > 100 | > 100 | > 100 | > 100 | 31.4 |
| CCCCc1ccc(Nc2nc(N)c3ncn(COCCO)c3n2)cc1 | 91.6 | 45.3 | > 100 | 92.6 | 51.2 | > 100 |  | 94.2 | 60.6 | 76.7 | 75 | 98.2 | > 100 |
| O=Cc1ccc(-c2cccc([N+](=O)[O-])c2)s1 | > 100 | > 100 | > 100 | > 100 | > 100 | > 100 | > 100 | > 100 | > 100 | > 100 | > 100 | > 100 | > 100 |
| O=C(NCCN1CCCC1)c1cn2c(ccc3sc4ccccc4c(=O)c32)n1 | 38.1 | 29.2 | 24.2 | 9.82 | > 56.6 | 25.7 | 18.6 | 5.7 | 30.2 | 7.52 | 33.3 | 24.6 | 4.53 |
| CCSC(=O)/C=C1\CN(C(=O)OC(C)(C)C)C1C(=O)OC(C)(C)C (stereo unspecified) | 13.4 | 3.98 | 13.3 | 7.85 | 8.63 | 6.39 | 23.2 | 4.77 | 7.51 | 12.7 | 19.4 | 3.76 | 3.97 |
| O/N=C1\CCc2cc3c(cc21)CCC3 | > 100 | > 100 | > 100 | > 100 | > 100 | > 100 | > 100 | > 100 | > 100 | > 100 | > 100 | > 100 | > 100 |
| Nc1ncc(CN2CCOCC2)c(-c2ccccc2O)n1 | > 100 | > 100 | > 100 | > 100 | > 100 | > 100 | > 100 | > 100 | > 100 | > 100 | > 100 | > 100 | > 100 |
| N#C/C(=C\c1ccc(Br)cc1)c1nc(-c2cc3ccccc3oc2=O)cs1 | > 50 | > 50 | > 50 | > 50 | > 50 | 22.9 | > 50 | > 50 | 40.4 | 20.6 | 41.1 | > 50 | > 50 |
